Measured values from article PMC5384962, “First-in-human studies of seletalisib, an orally bioavailable small-molecule PI3Kδ inhibitor for the treatment of immune and inflammatory diseases” (European Journal of Clinical Pharmacology, 2017).

Experiment: Study-2 safety/tolerability (adverse events)
Description: In total, 60 subjects were enrolled into five dose cohorts (n = 12 in each), and subjects were randomised (3:1) to receive seletalisib or placebo. Study-2 included initial dose cohorts of 30, 60 and 90 mg once-daily plus additional dose cohorts of 30 mg twice-daily and 45 mg once-daily.
Adverse events (AEs), serious AEs (SAEs), routine clinical laboratory parameters, vital signs and ECGs were monitored throughout the study periods and for ≤7 days post-administration of final-dose of seletalisib/placebo. The potential for seletalisib to cause gastrointestinal (GI) tract adverse effects was assessed by careful monitoring of subject reports of AEs such as abdominal pain, bloating, nausea, vomiting and alteration of bowel function (e.g. diarrhoea, constipation or bleeding). A formal safety review was conducted before each dose escalation. In Study-1 (Part-B), the potential for seletalisib to interfere with insulin signalling was assessed by monitoring blood glucose and C-peptide levels as part of the standard laboratory tests and by performance of oral glucose tolerance tests, measuring glucose and C-peptide levels, pre-dose and during exposure in all cohorts.
In each study, the primary population for analysis was the full analysis set (FAS), which comprised all subjects who had received ≥1 dose of seletalisib or placebo. PK analysis was performed on the PK per-protocol set (PK-PPS), which was a subset of the FAS consisting of subjects with no important protocol deviations likely to affect PK variables who received seletalisib; subjects who received placebo were excluded from this analysis. In Study-1 and Study-2, sample sizes of 57 and 36 subjects, respectively, were considered sufficient to permit assessment of the safety and tolerability of seletalisib and were not based on statistical considerations of power and sample size. In Study-1 (Part-A), a panel size of 15 subjects was selected to achieve good estimates of the PK/PD parameters.

With [O-][n+]1cccc(-c2nc3c(Cl)cccc3cc2[C@@H](Nc2ncnc3cccnc23)C(F)(F)F)c1 [Seletalisib, seletalisib] the Deaths (Study-2, 30 mg BID) was 0 n (%), the Deaths (Study-2, 30 mg QD) was 0 n (%) and the Deaths (Study-2, 45 mg QD) was 0 n (%). The Deaths (Study-2, 60 mg QD) was 0 n (%), the Deaths (Study-2, 90 mg QD) was 0 n (%) and the Deaths (Study-2, seletalisib total) was 0 n (%). The “Any AE, number of events […]” value (human, in vivo) was 169, the “number of rash-related AEs” value (human, in vivo) was 18 and the “number of subjects with AEs relating to GI disturbance” value (human, in vivo) was 10. For the same molecule, the “number of subjects with rash-related AEs” value (human, in vivo) was 12, the “subjects who discontinued the study due to an AE” value (human, in vivo) was 13.3% and the “subjects who experienced an AE” value (human, in vivo) was 71.1%. The “subjects with SAEs” value (human, in vivo) was 4.4%, the subjects with headache (human, in vivo) was 24.4% and the subjects with rash (human, in vivo) was 24.4%. The Abdominal discomfort (human, in vivo, 14 days) was 2 (4.4) n (%), the Abdominal pain (human, in vivo, 14 days) was 5 (11.1) n (%) and the “Any AE” value (human, in vivo, 14 days) was 32 (71.1) n (%). The “Dermatitis, contact” value (human, in vivo, 14 days) was 4 (8.9) n (%), the Diarrhoea (human, in vivo, 14 days) was 3 (6.7) n (%) and the “Discontinuations due to AEs” value (human, in vivo, 14 days) was 6 (13.3) n (%). For the same molecule, the “Discontinuations due to AEs, number of events […]” value (human, in vivo, 14 days) was 6, the Dizziness (human, in vivo, 14 days) was 5 (11.1) n (%) and the “Drug-related AEs” value (human, in vivo, 14 days) was 24 (53.3) n (%). For the same molecule, the “Drug-related AEs, number of events […]” value (human, in vivo, 14 days) was 136, the Dry mouth (human, in vivo, 14 days) was 2 (4.4) n (%) and the Dysgeusia (human, in vivo, 14 days) was 5 (11.1) n (%). For the same molecule, the Furuncle (human, in vivo, 14 days) was 2 (4.4) n (%), the Headache (human, in vivo, 14 days) was 11 (24.4) n (%) and the Initial insomnia (human, in vivo, 14 days) was 2 (4.4) n (%). For the same molecule, the Nausea (human, in vivo, 14 days) was 6 (13.3) n (%), the Oropharyngeal pain (human, in vivo, 14 days) was 6 (13.3) n (%) and the Rash (human, in vivo, 14 days) was 11 (24.4) n (%). The “Rash, generalised” value (human, in vivo, 14 days) was 3 (6.7) n (%), the Regurgitation (human, in vivo, 14 days) was 2 (4.4) n (%) and the “Serious AEs” value (human, in vivo, 14 days) was 2 (4.4) n (%). For the same molecule, the “Serious AEs, number of events […]” value (human, in vivo, 14 days) was 2, the “Severe AEs” value (human, in vivo, 14 days) was 3 (6.7) n (%) and the “Severe AEs, number of events […]” value (human, in vivo, 14 days) was 3. The Somnolence (human, in vivo, 14 days) was 2 (4.4) n (%), the Toothache (human, in vivo, 14 days) was 2 (4.4) n (%) and the Hypoaesthesia oral (human, in vivo, po, 14 days) was 2 (4.4) n (%). For the same molecule, the “number of AEs relating to GI disturbance” value (in vivo) was “Thirty-two” and the “number of infection-related AEs” value (in vivo) was “four”.
